Values quoted from earlier work in patent US20040260072A1, “Hydrophilic, thiol-reactive cyanine dyes and conjugates thereof with biomolecules for fluorescence diagnosis” (priority 2003, published 2004).

Settings: in DMSO; J Chem Eng Data 1977, 22, 379

CC1(C)C(/C=C/C=C/C=C/C=C2\N(CCCCS(=O)(=O)O)c3ccc4ccccc4c3C2(C)C)=[N+](CCCCS(=O)(=O)[O-])c2ccc3ccccc3c21 [Indocyanine Green]
Fluorescence quantum yield Q: 0.13
